{
  "source": "patent US8623196B2",
  "about": "(priority 2007, dated 2014)",
  "key": {"[1]": {"target": "NEST (recombinant esterase domain of NTE) (Homo sapiens, UniProt Q8IY17)", "assay_type": "biochemical"}, "[2]": {"system": "tyrosinase", "assay_type": "biochemical", "details": "for Average sensitivity (control experiments): PLL-Tyr bilayers without an esterase layer"}, "[3]": {"system": "Alkaline phosphatase", "experiment": "Bi-enzyme electrode of tyrosinase and alkaline phosphatase: current response to substrate", "assay_type": "biochemical", "details": "Table 1-2 lower part"}, "[4]": {"system": "acetylcholinesterase", "experiment": "Bi-enzyme electrode of tyrosinase and acetylcholinesterase: current response to substrate", "assay_type": "biochemical", "details": "for Average sensitivity: tyrosinase/acetylcholinesterase electrode"}, "[5]": {"system": "tyrosinase", "assay_type": "biochemical", "details": "NEST biosensor, 0.1 M phosphate buffer pH 7.0, −0.1 V"}, "[6]": {"target": "tyrosinase (Agaricus bisporus, UniProt C7FF04)", "sequence (C7FF04 1-392)": "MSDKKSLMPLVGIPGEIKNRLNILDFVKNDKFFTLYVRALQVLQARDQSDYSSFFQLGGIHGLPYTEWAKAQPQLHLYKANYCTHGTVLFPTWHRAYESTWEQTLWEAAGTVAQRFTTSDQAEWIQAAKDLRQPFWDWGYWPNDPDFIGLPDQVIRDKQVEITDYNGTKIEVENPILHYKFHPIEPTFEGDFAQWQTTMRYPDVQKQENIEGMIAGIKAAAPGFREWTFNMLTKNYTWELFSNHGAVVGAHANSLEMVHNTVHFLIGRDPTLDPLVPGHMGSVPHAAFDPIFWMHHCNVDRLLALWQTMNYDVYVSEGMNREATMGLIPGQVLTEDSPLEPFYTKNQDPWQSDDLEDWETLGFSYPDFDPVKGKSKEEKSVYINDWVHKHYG", "details": "read-out: apparent Michaelis constant Km^app; cited from earlier work"}, "[7]": {"system": "butyrylcholinesterase", "experiment": "Bi-enzyme electrode of tyrosinase and butyrylcholinesterase: current response to substrate", "assay_type": "biochemical"}, "[8]": {"target": "T1, NEST (Homo sapiens, UniProt Q8IY17)", "T1 construct": "recombinant esterase domain of NTE (NEST) of the present invention comprising amino acid residues 727-1216 of NTE; histidine tag; made in house; host or cells: E. coli BL21(DE3), pET-21b vector", "T1 sequence (Q8IY17 775-1264)": "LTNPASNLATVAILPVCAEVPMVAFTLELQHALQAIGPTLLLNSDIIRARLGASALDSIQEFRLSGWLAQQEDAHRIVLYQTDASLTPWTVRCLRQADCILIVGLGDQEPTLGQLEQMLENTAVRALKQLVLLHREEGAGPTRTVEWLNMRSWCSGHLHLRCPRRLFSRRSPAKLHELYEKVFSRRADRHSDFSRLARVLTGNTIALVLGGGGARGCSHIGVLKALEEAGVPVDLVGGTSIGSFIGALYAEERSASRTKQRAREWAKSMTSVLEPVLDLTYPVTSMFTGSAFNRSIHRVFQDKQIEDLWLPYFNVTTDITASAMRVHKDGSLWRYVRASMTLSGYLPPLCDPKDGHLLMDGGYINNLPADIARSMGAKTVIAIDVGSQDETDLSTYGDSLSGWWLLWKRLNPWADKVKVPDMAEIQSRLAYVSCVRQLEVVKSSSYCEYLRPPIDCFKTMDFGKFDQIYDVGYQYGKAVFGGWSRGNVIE", "experiment": "NEST biosensor: amperometric response to phenyl valerate", "assay_type": "biochemical", "details": "for Average sensitivity: tyrosinase/NEST electrode"}},
  "note": "“And” between values parts separate entries of the source, which are not always exact repeats. Equal values may be shown once.",
  "data": [
    {"smiles": "O=S(=O)(F)Cc1ccccc1", "note": "[PMSF, phenylmethylsulfonyl fluoride]", "values": [
      {"measurement": "drop in current after addition of NEST inhibitor (dose dependence)", "setting": "[1]", "result": "dose-dependent response"}
    ]},
    {"smiles": "O=P(O)(O)Oc1ccccc1", "note": "[Phenyl phosphate]", "values": [
      {"measurement": "Average sensitivity (control experiments)", "setting": "[2]", "result": 0.3, "unit": "nAμM^−1cm^−2"},
      {"measurement": "Average sensitivity", "setting": "[3]", "result": "236 ± 10", "unit": "nAμM^−1cm^−2"}
    ]},
    {"smiles": "CC(=O)Oc1ccccc1", "note": "[Phenyl acetate, phenyl acetate]", "values": [
      {"measurement": "Average sensitivity", "setting": "[4]; Table 1-2 lower part", "result": "180 ± 8", "unit": "nAμM^−1cm^−2"},
      {"measurement": "Average sensitivity", "setting": "[4]; Table 1-2 upper part", "result": "180 ± 25", "unit": "nAμM^−1cm^−2"},
      {"measurement": "Average sensitivity (control experiments)", "setting": "[2]", "result": 0.4, "unit": "nAμM^−1cm^−2"}
    ]},
    {"smiles": "Oc1ccccc1", "note": "[phenol]", "values": [
      {"measurement": "Average sensitivity", "setting": "[5]", "result": "~410±30", "unit": "nAμM^−1 cm^−2"},
      {"measurement": "Km", "setting": "[6]", "result": "~250", "unit": "µM"}
    ]},
    {"smiles": "Oc1ccccc1O", "note": "[catechol]", "values": [
      {"measurement": "sensitivity", "setting": "[5]", "result": "2.5±0.1", "unit": "μAμM^−1 cm^−2"},
      {"measurement": "Km", "setting": "[6]", "result": "~220", "unit": "µM"}
    ]},
    {"smiles": "CCCCC(=O)Oc1ccccc1", "note": "[Phenyl valerate, phenyl valerate]", "values": [
      {"measurement": "Average sensitivity", "setting": "[7]; Table 1-2 lower part", "result": "70 ± 5", "unit": "nAμM^−1cm^−2"},
      {"measurement": "Average sensitivity", "setting": "[7]; Table 1-2 upper part", "result": "25 ± 10", "unit": "nAμM^−1cm^−2"},
      {"measurement": "concentration at which response reached saturation", "setting": "[8]; 0.1 M phosphate buffer, pH 7.0, −0.1 V vs Ag/AgCl", "result": "approximately 30 μM"},
      {"measurement": "Average sensitivity", "setting": "[8]; Table 1-2 lower part", "result": "88 ± 6", "unit": "nAμM^−1cm^−2"},
      {"measurement": "Average sensitivity", "setting": "[8]; Table 1-2 upper part", "result": "87 ± 8", "unit": "nAμM^−1cm^−2"},
      {"measurement": "mean current", "setting": "[8]; phenyl valerate 4 μM, n=10 electrodes", "result": "approximately 348 nA cm^−2"},
      {"measurement": "limit of detection", "setting": "[8]; signal-to-noise ratio of three", "result": 0.5, "unit": "µM"},
      {"measurement": "rise in current with substrate", "setting": "[4]; used as substrate instead of phenyl acetate", "result": "no significant rise in current"},
      {"measurement": "Average sensitivity (control experiments)", "setting": "[2]", "result": "0.5 nAμM^−1cm^−2 and 0.3 nAμM^−1cm^−2"},
      {"measurement": "rise in steady state current on addition of substrate", "setting": "[2]; electrode with poly-L-lysine and tyrosinase bilayers without NEST", "result": "relatively very small rise in steady state current"}
    ]}
  ]
}
